In experiment [1] the test system is K562 (BCR-ABL+) cells. Description: CCK-8 proliferation inhibition, K562 cells.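 Also: Ten-point threefold dilution series starting at 10 µM, absorbance at 450 nm after 2 h with CCK-8, DMSO as negative control.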 It is filed as cell-based, human. To be noted: Homo sapiens, K562, 48 h, CCK-8, 48 hours of drug treatment; read-out: Proliferative inhibitory activity (IC50, nM) K562 (BCR-ABL+).
The subject of experiment [2] is U937 (BCR-ABL-) cells. In words: CCK-8 proliferation inhibition, U937 cells.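 Also: Ten-point threefold dilution series, absorbance at 450 nm after 2 h with CCK-8 reagent, DMSO as negative control.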 It is filed as cell-based, human. Particulars: Homo sapiens, U-937; CCK-8, 48 hours of drug treatment, highest concentration 10 μM; read-out: Proliferative inhibitory activity (IC50, nM) U937 (BCR-ABL-).
The test system of experiment [3] is HEK293 (BCR-ABL-) cells. Description: CCK-8 proliferation inhibition, HEK293 cells.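 Also: Ten-point threefold dilution series starting at 10 µM, CCK-8 absorbance at 450 nm read after 2 h reagent incubation, DMSO-treated cells as negative control.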 To be noted: Homo sapiens, HEK293, 48 h, read-out: Proliferative inhibitory activity (IC50, nM) HEK293 (BCR-ABL-).
Experiment [4] addresses c-ABL protein (Homo sapiens, UniProt P00519). Description: Western blot degradation of c-ABL in K562 cells. Particulars: 16 hours, 1 nM-10 μM. The experiment is classed as cell-based. Further details: Western blot was used to detect the expression of BCR-ABL and c-ABL protein in K562 cells; endogenous in cells; host or cells: K562. How it is done: (§1) (1) Cell seed: K562 cells were added to the 24 well plates, with a cell density of 3×10^5/ml and a total volume of 1.5 ml; Five concentration gradients, 1 nm, 10 nm, 100 nm, 1 μM, and 10 μM, were respectively set for PROTAD series compounds and comparative examples compounds (Dasa-6-2-2-6-VHL, Dasa-6-2-6-CRBN). […] After 16 hours of drug treatment, the cells were collected in 1.5 ml ep tube, centrifuged at 3000 rpm for 3 minutes, and then added 30 μL PBS and 30 ul 2×SDS to cell precipitated, lysate Heat at 100° C. for 5 minutes, then place on ice for 5 minutes, centrifuged at 10000 rpm for 5 minutes, and take the supernatant as the total protein extracted. The protein concentration was determined by the Bradford method. After each sample was at the same concentration, bromophenol blue was added as the sample indicator.
(§2) (2) Electrophoresis: the starting voltage of the BioRad electrophoresis instrument was 80V, and as the dye enters the separation gel, the voltage was adjusted to 120V;
(§3) (3) Film transfer: prepare filter paper and nitrocellulose membrane with the corresponding size of the gel, filter paper, and NC film were soaked in transfer electrophoresis buffer.
(§4) DC50 (concentration required to degrade protein by half) were calculated based on the intensity from western blot, and data were analyzed via Prism GraphPad with non-linear regression.

The target of experiment [5] is BCR-ABL protein (Homo sapiens, UniProt P00519). Description: Western blot degradation of BCR-ABL in K562 cells. The experiment is classed as cell-based. Details: Western blot was used to detect the expression of BCR-ABL and c-ABL protein in K562 cells; BCR (fusion partner, P11274); endogenous in cells; host or cells: K562; the other entry of the earlier key: BCR (P11274, Breakpoint cluster region protein). To be noted: 16 hours, 1 nM-10 μM. The protocol:
as §1, §2, §3, §4
Background: Immunoblotting shows a protein as a band on a membrane.

Bounds are passed on as bounds.

For 11 compounds, IC50 and DC50 results are on record in patent publication US11639343B2, “Compounds targeting and degrading BCR-ABL protein and its antitumor application” (ShanghaiTech University, priority 2019, dated 2023).

One may read the IC50 as the concentration at which inhibition is half-maximal. One may read the DC50 as the concentration at which degradation of the target reaches its halfway point.

BCR-ABL protein, sequence (P00519 with tags, fused parts or gaps): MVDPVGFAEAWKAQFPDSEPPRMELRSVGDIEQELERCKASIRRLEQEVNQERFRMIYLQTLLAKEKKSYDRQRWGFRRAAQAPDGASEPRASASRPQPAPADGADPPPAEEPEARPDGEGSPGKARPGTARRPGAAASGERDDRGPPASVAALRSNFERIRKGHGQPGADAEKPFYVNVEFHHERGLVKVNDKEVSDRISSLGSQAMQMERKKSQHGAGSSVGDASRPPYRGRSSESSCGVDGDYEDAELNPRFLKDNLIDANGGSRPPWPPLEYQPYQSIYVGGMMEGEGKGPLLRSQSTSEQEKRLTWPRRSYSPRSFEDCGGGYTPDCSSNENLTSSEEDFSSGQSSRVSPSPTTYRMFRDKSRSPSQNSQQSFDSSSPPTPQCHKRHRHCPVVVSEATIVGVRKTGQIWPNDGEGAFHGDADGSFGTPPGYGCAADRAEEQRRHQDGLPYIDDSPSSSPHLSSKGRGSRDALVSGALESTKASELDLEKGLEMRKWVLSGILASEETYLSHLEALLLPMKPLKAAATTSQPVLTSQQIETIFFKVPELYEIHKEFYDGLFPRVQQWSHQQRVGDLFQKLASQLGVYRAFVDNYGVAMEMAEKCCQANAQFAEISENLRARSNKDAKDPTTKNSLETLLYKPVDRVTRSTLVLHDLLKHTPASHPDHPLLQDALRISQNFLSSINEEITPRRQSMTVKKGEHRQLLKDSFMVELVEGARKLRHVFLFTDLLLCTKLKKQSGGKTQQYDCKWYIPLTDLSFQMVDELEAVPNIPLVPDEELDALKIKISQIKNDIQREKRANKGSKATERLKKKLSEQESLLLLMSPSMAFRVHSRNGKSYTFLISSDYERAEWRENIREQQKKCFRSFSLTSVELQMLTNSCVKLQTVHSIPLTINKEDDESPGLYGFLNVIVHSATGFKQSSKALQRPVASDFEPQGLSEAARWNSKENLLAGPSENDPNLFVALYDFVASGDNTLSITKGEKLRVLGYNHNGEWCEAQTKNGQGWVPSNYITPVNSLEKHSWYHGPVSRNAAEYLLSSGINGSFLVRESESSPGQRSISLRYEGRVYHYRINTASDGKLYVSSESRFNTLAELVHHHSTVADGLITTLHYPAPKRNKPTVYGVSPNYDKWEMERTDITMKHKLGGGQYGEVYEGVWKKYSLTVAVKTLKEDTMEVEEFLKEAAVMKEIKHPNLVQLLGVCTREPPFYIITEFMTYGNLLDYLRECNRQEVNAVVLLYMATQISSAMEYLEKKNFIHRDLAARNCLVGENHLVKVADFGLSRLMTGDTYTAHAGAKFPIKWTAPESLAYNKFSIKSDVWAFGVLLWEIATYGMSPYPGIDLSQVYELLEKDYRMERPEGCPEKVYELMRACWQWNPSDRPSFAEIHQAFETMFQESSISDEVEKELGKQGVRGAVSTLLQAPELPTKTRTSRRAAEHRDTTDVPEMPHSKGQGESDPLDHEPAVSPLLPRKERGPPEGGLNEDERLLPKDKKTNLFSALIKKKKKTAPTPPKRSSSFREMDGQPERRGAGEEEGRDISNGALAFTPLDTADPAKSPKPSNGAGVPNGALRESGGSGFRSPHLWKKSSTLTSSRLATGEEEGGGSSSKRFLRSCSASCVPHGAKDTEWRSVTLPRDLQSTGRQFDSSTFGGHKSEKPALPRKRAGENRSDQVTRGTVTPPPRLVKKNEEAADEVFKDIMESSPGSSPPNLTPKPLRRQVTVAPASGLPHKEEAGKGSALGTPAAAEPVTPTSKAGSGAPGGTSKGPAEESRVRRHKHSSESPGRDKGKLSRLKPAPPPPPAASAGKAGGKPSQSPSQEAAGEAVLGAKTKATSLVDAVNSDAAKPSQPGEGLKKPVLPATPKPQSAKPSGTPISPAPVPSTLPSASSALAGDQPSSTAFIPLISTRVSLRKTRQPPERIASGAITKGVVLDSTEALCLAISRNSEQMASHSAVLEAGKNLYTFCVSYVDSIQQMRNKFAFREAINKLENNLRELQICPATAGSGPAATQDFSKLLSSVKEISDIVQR
c-ABL protein, sequence (P00519 whole entry): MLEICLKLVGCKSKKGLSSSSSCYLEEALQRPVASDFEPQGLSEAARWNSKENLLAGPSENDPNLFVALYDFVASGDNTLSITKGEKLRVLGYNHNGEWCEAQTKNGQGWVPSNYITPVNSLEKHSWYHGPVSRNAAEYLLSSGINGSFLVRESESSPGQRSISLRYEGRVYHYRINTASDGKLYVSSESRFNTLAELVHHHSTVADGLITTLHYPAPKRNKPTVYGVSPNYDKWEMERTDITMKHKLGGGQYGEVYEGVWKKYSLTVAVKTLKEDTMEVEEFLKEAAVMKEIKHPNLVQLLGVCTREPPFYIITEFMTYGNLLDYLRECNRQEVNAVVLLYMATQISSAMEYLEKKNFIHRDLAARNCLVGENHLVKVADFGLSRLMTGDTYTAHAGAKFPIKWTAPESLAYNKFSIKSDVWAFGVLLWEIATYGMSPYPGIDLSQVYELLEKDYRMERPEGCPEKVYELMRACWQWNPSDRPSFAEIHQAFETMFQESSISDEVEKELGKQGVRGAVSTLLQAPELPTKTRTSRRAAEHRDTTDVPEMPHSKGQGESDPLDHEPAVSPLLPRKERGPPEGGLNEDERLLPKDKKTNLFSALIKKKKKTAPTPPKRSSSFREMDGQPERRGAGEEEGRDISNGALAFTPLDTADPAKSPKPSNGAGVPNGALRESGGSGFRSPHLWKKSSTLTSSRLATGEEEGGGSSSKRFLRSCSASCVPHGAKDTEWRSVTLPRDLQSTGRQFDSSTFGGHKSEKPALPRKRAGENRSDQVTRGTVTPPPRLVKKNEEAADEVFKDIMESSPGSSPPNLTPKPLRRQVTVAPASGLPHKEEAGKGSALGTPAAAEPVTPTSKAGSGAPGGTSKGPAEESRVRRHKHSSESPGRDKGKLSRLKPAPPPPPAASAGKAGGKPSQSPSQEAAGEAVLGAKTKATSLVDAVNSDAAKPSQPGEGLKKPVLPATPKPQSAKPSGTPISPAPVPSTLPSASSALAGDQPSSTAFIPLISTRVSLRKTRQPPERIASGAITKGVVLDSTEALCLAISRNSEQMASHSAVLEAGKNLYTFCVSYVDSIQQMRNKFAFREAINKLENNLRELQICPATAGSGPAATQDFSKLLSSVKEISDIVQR

On to `COc1cc(Nc2c(C#N)cnc3cc(OCCCN4CCN(C(=O)CCCNc5cccc6c5C(=O)N(C5CCC(=O)NC5=O)C6=O)CC4)c(OC)cc23)c(Cl)cc1Cl` (stereo not shown) [SIAIS151162, 4-((2,4-dichloro-5-methoxyphenyl)amino)-7-(3-(4-(4-((2-(2,6-dioxopiperidin-3-yl)-1,3-dioxoisoindolin-4-yl)amino)butanoyl)piperazin-1-yl)propoxy)-6-methoxyquinoline-3-carbonitrile], for which the IC50 in experiment [1] was 712 nM; in experiment [2], over 10000 nM; in experiment [3], over 10000 nM. The DC50 in experiment [4] and in experiment [5] was 0.01 to 0.1 µM each time.
For the compound `COc1cc(Nc2c(C#N)cnc3cc(OCCCN4CCN(C(=O)CCCCNc5cccc6c5C(=O)N(C5CCC(=O)NC5=O)C6=O)CC4)c(OC)cc23)c(Cl)cc1Cl` (stereo not shown) [SIAIS151163, 4-((2,4-dichloro-5-methoxyphenyl)amino)-7-(3-(4-(5-((2-(2,6-dioxopiperidin-3-yl)-1,3-dioxoisoindolin-4-yl)amino)pentanoyl)piperazin-1-yl)propoxy)-6-methoxyquinoline-3-carbonitrile], the IC50 in experiment [1] was 126 nM; in experiment [2], over 10000 nM; in experiment [3] it was over 10000 nM. Besides, the DC50 in experiment [4] and in experiment [5] was 0.01 to 0.1 µM throughout.
Take `COc1cc(Nc2c(C#N)cnc3cc(OCCCN4CCN(C(=O)CCCCCNc5cccc6c5C(=O)N(C5CCC(=O)NC5=O)C6=O)CC4)c(OC)cc23)c(Cl)cc1Cl` (stereo not shown) [SIAIS151166, 4-((2,4-dichloro-5-methoxyphenyl)amino)-7-(3-(4-(6-((2-(2,6-dioxopiperidin-3-yl)-1,3-dioxoisoindolin-4-yl)amino)hexanoyl)piperazin-1-yl)propoxy)-6-methoxyquinoline-3-carbonitrile]: the results for the IC50 in experiment [1], in experiment [2] and in experiment [3] were 894 nM, over 10000 nM and over 10000 nM, respectively. Moreover, the DC50 in experiment [4] and in experiment [5] was 0.01 to 0.1 µM each time.
On to `COc1cc(Nc2c(C#N)cnc3cc(OCCCN4CCN(C(=O)CCCCCCNc5cccc6c5C(=O)N(C5CCC(=O)NC5=O)C6=O)CC4)c(OC)cc23)c(Cl)cc1Cl` (stereo not shown) [SIAIS151167, 4-((2,4-dichloro-5-methoxyphenyl)amino)-7-(3-(4-(7-((2-(2,6-dioxopiperidin-3-yl)-1,3-dioxoisoindolin-4-yl)amino)heptanoyl)piperazin-1-yl)propoxy)-6-methoxyquinoline-3-carbonitrile], for which the IC50 was 3650 nM in experiment [1], over 10000 nM in experiment [2] and over 10000 nM in experiment [3]. Moreover, the DC50 in experiment [4] and in experiment [5] was 0.01 to 0.1 µM each time.
Take `Cc1nc(Nc2ncc(C(=O)Nc3c(C)cccc3Cl)s2)cc(N2CCN(C(=O)CCC(=O)N[C@H](C(=O)N3C[C@H](O)C[C@H]3C(=O)NCc3ccc(-c4scnc4C)cc3)C(C)(C)C)CC2)n1` [SIAIS151174, N-(2-chloro-6-methylphenyl)-2-((6-(4-(4-(((S)-1-((2S,4R)-4-hydroxy-2-((4-(4-methylthiazol-5-yl)benzyl)carbamoyl)pyrrolidin-1-yl)-3,3-dimethyl-1-oxobutan-2-yl)amino)-4-oxobutanoyl)piperazin-1-yl)-2-methylpyrimidin-4-yl)amino)thiazole-5-carboxamide]: the IC50 was 78 nM in experiment [1], over 10000 nM in experiment [2] and over 10000 nM in experiment [3]. Besides, the DC50 in experiment [4] and in experiment [5] was 0.1 to 1 µM throughout.
In the case of `Cc1nc(Nc2ncc(C(=O)Nc3c(C)cccc3Cl)s2)cc(N2CCN(C(=O)CCCC(=O)N[C@H](C(=O)N3C[C@H](O)C[C@H]3C(=O)NCc3ccc(-c4scnc4C)cc3)C(C)(C)C)CC2)n1` [SIAIS151175, N-(2-chloro-6-methylphenyl)-2-((6-(4-(5-(((S)-1-((2S,4R)-4-hydroxy-2-((4-(4-methylthiazol-5-yl)benzyl)carbamoyl)pyrrolidin-1-yl)-3,3-dimethyl-1-oxobutan-2-yl)amino)-5-oxopentanoyl)piperazin-1-yl)-2-methylpyrimidin-4-yl)amino)thiazole-5-carboxamide], the IC50 in experiment [1] was 87 nM; in experiment [2], over 10000 nM; in experiment [3] it was 3890 nM. In addition, the DC50 lay in the range of 0.1 to 1 µM in experiment [4] and 0.01 to 0.1 µM in experiment [5].
The like results for `Cc1nc(Nc2ncc(C(=O)Nc3c(C)cccc3Cl)s2)cc(N2CCN(C(=O)CCCCC(=O)N[C@H](C(=O)N3C[C@H](O)C[C@H]3C(=O)NCc3ccc(-c4scnc4C)cc3)C(C)(C)C)CC2)n1` [SIAIS151176, N-(2-chloro-6-methylphenyl)-2-((6-(4-(6-(((S)-1-((2S,4R)-4-hydroxy-2-((4-(4-methylthiazol-5-yl)benzyl)carbamoyl)pyrrolidin-1-yl)-3,3-dimethyl-1-oxobutan-2-yl)amino)-6-oxohexanoyl)piperazin-1-yl)-2-methylpyrimidin-4-yl)amino)thiazole-5-carboxamide] were, in that order, 89 nM, over 10000 nM, over 10000 nM, 0.1 to 1 µM and 0.01 to 0.1 µM.
The corresponding values for `Cc1nc(Nc2ncc(C(=O)Nc3c(C)cccc3Cl)s2)cc(N2CCN(C(=O)CCCCCC(=O)N[C@H](C(=O)N3C[C@H](O)C[C@H]3C(=O)NCc3ccc(-c4scnc4C)cc3)C(C)(C)C)CC2)n1` [SIAIS151177, N-(2-chloro-6-methylphenyl)-2-((6-(4-(7-(((S)-1-((2S,4R)-4-hydroxy-2-((4-(4-methylthiazol-5-yl)benzyl)carbamoyl)pyrrolidin-1-yl)-3,3-dimethyl-1-oxobutan-2-yl)amino)-7-oxoheptanoyl)piperazin-1-yl)-2-methylpyrimidin-4-yl)amino)thiazole-5-carboxamide] are 37.6 nM, over 10000 nM, over 10000 nM, 0.01 to 0.1 µM and 0.001 to 0.01 µM.
The like results for `Cc1nc(Nc2ncc(C(=O)Nc3c(C)cccc3Cl)s2)cc(N2CCN(C(=O)CCCCCCCC(=O)N[C@H](C(=O)N3C[C@H](O)C[C@H]3C(=O)NCc3ccc(-c4scnc4C)cc3)C(C)(C)C)CC2)n1` [SIAIS151179, N-(2-chloro-6-methylphenyl)-2-((6-(4-(9-(((S)-1-((2S,4R)-4-hydroxy-2-((4-(4-methylthiazol-5-yl)benzyl)carbamoyl)pyrrolidin-1-yl)-3,3-dimethyl-1-oxobutan-2-yl)amino)-9-oxononanoyl)piperazin-1-yl)-2-methylpyrimidin-4-yl)amino)thiazole-5-carboxamide] were, in that order, 22.4 nM, over 10000 nM, over 10000 nM, 0.1 to 1 µM and 0.01 to 0.1 µM.
Turning to `Cc1nc(Nc2ncc(C(=O)Nc3c(C)cccc3Cl)s2)cc(N2CCN(C(=O)CCCCCCCCC(=O)N[C@H](C(=O)N3C[C@H](O)C[C@H]3C(=O)NCc3ccc(-c4scnc4C)cc3)C(C)(C)C)CC2)n1` [SIAIS151180, N-(2-chloro-6-methylphenyl)-2-((6-(4-(10-(((S)-1-((2S,4R)-4-hydroxy-2-((4-(4-methylthiazol-5-yl)benzyl)carbamoyl)pyrrolidin-1-yl)-3,3-dimethyl-1-oxobutan-2-yl)amino)-10-oxodecanoyl)piperazin-1-yl)-2-methylpyrimidin-4-yl)amino)thiazole-5-carboxamide], the IC50 was 14.3 nM in experiment [1], over 10000 nM in experiment [2] and over 10000 nM in experiment [3]. Moreover, the DC50 in experiment [4] was 0.01 to 0.1 µM; in experiment [5] it was 0.001 to 0.01 µM.
Regarding `Cc1nc(Nc2ncc(C(=O)Nc3c(C)cccc3Cl)s2)cc(N2CCN(C(=O)CCCCCCNc3cccc4c3C(=O)N(C3CCC(=O)NC3=O)C4=O)CC2)n1` (stereo not shown) [SIAIS151181, N-(2-chloro-6-methylphenyl)-2-((6-(4-(7-((2-(2,6-dioxopiperidin-3-yl)-1,3-dioxoisoindolin-4-yl)amino)heptanoyl)piperazin-1-yl)-2-methylpyrimidin-4-yl)amino)thiazole-5-carboxamide], the IC50 in experiment [1] was 1.47 nM; in experiment [2], over 10000 nM; in experiment [3], over 10000 nM. Further, the DC50 in experiment [4] and in experiment [5] was 0.001 to 0.01 µM each time.
